This is an account of results in paper PMC8131363 (Scientific Reports, 2021).

For one assay, the target named is T1, hCaSR (Homo sapiens, UniProt P41180).
T1 construct: expressed in transfected cells; host or cells: HEK293/natClytin (transient, pcDNA6 as delivered by GeneArt)
T1 sequence (P41180 20-1078): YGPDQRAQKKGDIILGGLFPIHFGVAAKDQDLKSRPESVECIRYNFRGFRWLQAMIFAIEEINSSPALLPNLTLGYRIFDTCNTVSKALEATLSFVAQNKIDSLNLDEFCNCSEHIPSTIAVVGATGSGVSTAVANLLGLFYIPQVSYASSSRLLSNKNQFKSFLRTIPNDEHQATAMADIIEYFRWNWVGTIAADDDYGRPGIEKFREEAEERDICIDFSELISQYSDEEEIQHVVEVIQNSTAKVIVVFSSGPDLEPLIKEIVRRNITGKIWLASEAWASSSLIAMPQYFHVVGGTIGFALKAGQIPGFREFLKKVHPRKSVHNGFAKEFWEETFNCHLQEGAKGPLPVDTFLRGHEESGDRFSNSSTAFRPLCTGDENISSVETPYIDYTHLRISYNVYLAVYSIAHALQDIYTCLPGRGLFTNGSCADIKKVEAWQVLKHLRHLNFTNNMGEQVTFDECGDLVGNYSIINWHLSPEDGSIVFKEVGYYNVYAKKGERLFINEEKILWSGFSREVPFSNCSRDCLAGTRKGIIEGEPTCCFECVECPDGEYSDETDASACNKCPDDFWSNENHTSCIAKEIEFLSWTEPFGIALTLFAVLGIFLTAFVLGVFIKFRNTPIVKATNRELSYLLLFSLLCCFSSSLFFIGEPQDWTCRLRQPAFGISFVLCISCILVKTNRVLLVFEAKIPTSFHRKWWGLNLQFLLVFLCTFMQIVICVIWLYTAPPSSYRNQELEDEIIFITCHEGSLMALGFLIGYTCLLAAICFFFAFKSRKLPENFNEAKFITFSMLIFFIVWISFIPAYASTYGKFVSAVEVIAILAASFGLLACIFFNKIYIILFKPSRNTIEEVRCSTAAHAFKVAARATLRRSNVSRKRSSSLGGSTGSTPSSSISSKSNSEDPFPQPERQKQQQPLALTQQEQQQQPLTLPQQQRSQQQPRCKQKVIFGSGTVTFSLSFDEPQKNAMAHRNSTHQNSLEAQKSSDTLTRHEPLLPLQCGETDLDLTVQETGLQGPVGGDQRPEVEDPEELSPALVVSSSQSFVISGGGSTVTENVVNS
Description: hCaSR transiently expressed in HEK293/natClytin, agonist luminescence assay. Type of assay: cell-based. On the procedure:
(§1) The coding sequence of the Felis catus[52] and Homo sapiens[53] CaSR gene was synthesised by GeneArt (Thermo Fisher Scientific). The cat coding sequence was excised from the GeneArt construct and inserted in pcDNA3.1 for constitutive and transient expression or pcDNA5/ TO for inducible expression. For the human sequence the pcDNA6 vector as delivered by GeneArt was used without further sub-cloning.
(§2) All transient transfections were performed with Lipofectamine 2000 (Invitrogen) according to the manufacturer’s protocol.

The target in assay [1] is T2, cCaSR (Felis catus, UniProt C7FF08).
T2 sequence (C7FF08 1-1081): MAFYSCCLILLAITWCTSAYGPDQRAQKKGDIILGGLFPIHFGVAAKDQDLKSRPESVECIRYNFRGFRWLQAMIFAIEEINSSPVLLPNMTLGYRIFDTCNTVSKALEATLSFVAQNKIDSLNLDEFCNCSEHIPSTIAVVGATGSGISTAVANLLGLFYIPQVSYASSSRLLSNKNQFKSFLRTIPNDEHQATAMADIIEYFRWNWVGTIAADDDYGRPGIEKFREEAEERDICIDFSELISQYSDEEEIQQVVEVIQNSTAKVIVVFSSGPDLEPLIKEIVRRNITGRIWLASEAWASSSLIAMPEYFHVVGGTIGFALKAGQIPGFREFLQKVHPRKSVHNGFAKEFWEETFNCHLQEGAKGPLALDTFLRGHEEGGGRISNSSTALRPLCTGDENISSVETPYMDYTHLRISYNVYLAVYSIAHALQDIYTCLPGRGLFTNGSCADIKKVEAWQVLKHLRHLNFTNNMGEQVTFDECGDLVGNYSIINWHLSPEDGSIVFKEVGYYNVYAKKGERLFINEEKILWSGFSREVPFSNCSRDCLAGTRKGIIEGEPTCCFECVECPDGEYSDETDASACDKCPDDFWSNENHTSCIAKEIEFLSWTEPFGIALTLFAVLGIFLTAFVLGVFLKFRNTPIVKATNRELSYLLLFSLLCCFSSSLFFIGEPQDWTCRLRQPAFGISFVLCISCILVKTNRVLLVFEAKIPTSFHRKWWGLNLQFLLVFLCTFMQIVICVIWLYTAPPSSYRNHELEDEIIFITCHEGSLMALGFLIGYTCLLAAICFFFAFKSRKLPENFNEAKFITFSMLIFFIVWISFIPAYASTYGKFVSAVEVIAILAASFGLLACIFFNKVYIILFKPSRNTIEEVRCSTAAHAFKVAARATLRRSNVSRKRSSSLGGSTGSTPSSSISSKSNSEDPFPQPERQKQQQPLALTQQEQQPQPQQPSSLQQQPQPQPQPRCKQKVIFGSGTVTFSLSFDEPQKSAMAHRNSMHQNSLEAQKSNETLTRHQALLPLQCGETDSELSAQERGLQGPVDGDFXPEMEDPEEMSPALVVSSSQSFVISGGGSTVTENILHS
Description: cCaSR transiently expressed in HEK293/natClytin, agonist luminescence assay. It counts as cell-based. On the procedure: as §1, §2

In assay [2] the target is T2, cCaSR.
For assay [3], the target named is T2, cCaSR. Description: cell-based.
The target of assay [4] is T2, cCaSR. Nature of the assay: cCaSR PAM luminescence assay, double injection with 0.5 mM CaCl2, HEK293/T-REx/natClytin-cCaSR. The following applies: Supplementary Table I, PAM assay, dash = no activity.
The subject of assay [5] is cCaSR. The settings on record: for EC50 Ago (M): Supplementary Table I, dash = no activity.
Assay [6] deals with cCaSR. Description: cCaSR PAM luminescence assay, double injection with 0.5 mM CaCl2, HEK293/T-REx/natClytin-cCaSR. The following applies: Supplementary Table I, PAM assay, dash = no activity.
The test system of assay [7] is cCaSR. Nature of the assay: cCaSR transiently expressed in HEK293/natClytin, agonist luminescence assay. It counts as cell-based, Felis catus. The settings on record: transiently expressed cCaSR; > 3 mM = maximal response not reached. On the procedure:
as §1, §2

Assay [8] addresses domestic cat Calcium Sensing Receptor (cCaSR) (Felis catus).
For assay [9] the target is unchanged. This is another data set of the same source.
Where [10] appears, read: transiently expressed hCaSR, > 3 mM = maximal response not reached, read-out: hCaSR EC50.
Setting [11] is: EC50 Ago (M), Supplementary Table I, agonist assay, > 0.01 M = maximal response not reached.
The mark [12] stands for this setting: cCaSR activity, agonist assay, stable inducible cCaSR line, at least three wells.

Where two headings read alike, the source gives them in different places.

As for `N[C@@H](CCC(=O)O)C(=O)O` [L-Glutamic acid], the EC50 at hCaSR (setting [10]) was greater than 3000 µM; at cCaSR [1] (transiently expressed cCaSR, > 3 mM = maximal response not reached, read-out: cCaSR EC50), greater than 3000 µM; at cCaSR [3] (setting [11]) it was 0.00916 M; on cCaSR [3] (EC50 Value (heat map Fig. 5), cCaSR agonists, heat map), 0.00903 M; at cCaSR [3] (setting [12]) it was greater than 0.01 M; on cCaSR [3] (cCaSR stable EC50(mM), […], > 3 mM = maximal response not reached), greater than 0.003 M. Further, at cCaSR [2], the “agonist activity on cCaSR (in words)” value is reported as “strong agonist activity”. Also, the “EC50 PAM (M)” value on cCaSR [4] is “-”.

Take `CNc1ccc2oc(C[C@@H]3OC4(CC[C@@H]3C)O[C@H](C(C)C(=O)c3ccc[nH]3)[C@H](C)C[C@H]4C)nc2c1C(=O)O` (some centres unmarked) [Calcium Ionophore, reference compound]: the “EC50 Ago (M)” value with cCaSR [5] (agonist assay) is recorded as “-”. The “EC50 PAM (M)” value with cCaSR [6] is listed as “-”.

For the compound `CN[C@@H]1[C@@H](O)[C@@H](O[C@@H]2[C@@H](O)[C@H](O[C@H]3O[C@H]([C@@H](C)O)[C@@H](O)[C@H](O)[C@H]3N)[C@@H](N)C[C@H]2N)OC[C@]1(C)O` [Geneticin, reference compound], the EC50 on hCaSR (setting [10]) is 3600 µM; in the assay with cCaSR [7] it was 3000 µM; with cCaSR [5] (read-out: cCaSR activity, agonist assay, stable inducible cCaSR line, at least three wells), greater than 10000 µM; in the assay on cCaSR [5] (read-out: cCaSR stable EC50, […], > 3 mM = maximal response not reached), 1100 µM. The “EC50 Ago (M)” value in the assay with cCaSR [5] (agonist assay) is “-”. Further, the “EC50 PAM (M)” value in the assay with cCaSR [6] was “-”.

Take Poly-L-arginine (peptide): the EC50 of agonist activity, luminescence (natClytin) in HEK T-Rex/natClytin cells inducibly expressing cCaSR, calcium-free buffer; activity grade +++ in [8] is 1.01 µM. The EC50 for cCaSR (stably and transiently expressed) against the EC50 for hCaSR, luminescence dose response in HEK293/natClytin cells in assay [9] turned out to be 2.5 fold.

For the compound `NCCCCNCCCN` [Spermidine], the EC50 was 1300 µM at hCaSR; 1100 µM on cCaSR [1]; 0.00249 M at cCaSR [3] (EC50 (M), agonist assay, stable inducible cCaSR line, > 0.01 M = maximal response not reached); 0.0025 M at cCaSR [3] (setting [11]); 0.001 to 0.01 M at cCaSR [3] (setting [12]); 0.0023 M at cCaSR [3] (cCaSR stable EC50(mM), stably expressed cCaSR, Fig. 6b, > 3 mM = maximal response not reached). Besides, the “agonist activity on cCaSR (in words)” value at cCaSR [2] is reported as “agonists”. Moreover, the “EC50 PAM (M)” value at cCaSR [4] is given as “-”.
